# Results from US5153180A, “Fluorinated nucleosides and process for treating retrovirus infections therewith” (priority 1990, dated 1992).
# Read-outs that look alike come from different tables or passages of the source.
# Tests used:
# [1] = test system: HIV; experiment: Inhibition of the cytopathic effect of HIV on MT-4 cells; type: cell-based; conditions: for EC50: Human immunodeficiency virus 1, MT4, 144 h
# Protocol: (§1) Under in vitro conditions immortalized T-lymphocytes can be killed within few days by the cytopathic effect of HIV. […] For this purpose about 20,000 MT-4 cells (Harada et al. Science 229, 563 (1985)) Were infected with HIV (titer: 0.04 m.o.i.) and incubated in the presence or absence of varying concentrations of compounds according to formula I, with 10% fetal calf serum (FCS) in 200 μl RPMI medium. After 6 days of incubation the viable cells were counted that were excluded from trypan blue staining.
# [2] = test system: K-37 immortalized T-cells; experiment: Inhibition of proliferation of K-37 cells; type: cell-based; conditions: Homo sapiens, T-cell
# Text: (§2) Originally FTdR was developed as a cytostatic agent (P. Langen et al., Acta biol. med. Germ. 23, 759, 1969; and U.S. Pat. No. 3,775,397) and, therefore, its cytostatic efficacy has been examined in extensive prior studies. […] Ehrlich-mouse-ascites-carcinoma cells (EMAC) represents an exception to that finding, and this is probably connected to its high capability of phosphorylation of FTdR, which is 10 times higher than in human cells. The fast reversibility of the cytostatic effects on EMAC cells was regarded as a special property of this compound (P. Langen et al., Europ. J. Cancer. 14. 349, 1978). The antiproliferative effect of FTdR and FddUrd, and in comparison thereto of N3 -TdR were tested on human cell lines with regard to a possible use in humans. […] When FTdR is compared to N3 -TdR. The effects are very similar, however somewhat lower in each case for N3 -TdR than for FTdR.
# (§3) CD50 : inhibitory dose required to reduce the cell number by 50%
# [3] = test system: H9 immortalized T-cells; experiment: Inhibition of proliferation of H9 cells; type: cell-based; conditions: Homo sapiens, T-cell
# Text: as §2, §3
# [4] = test system: REH acute lymphatic leukemia; experiment: Inhibition of proliferation of REH cells; type: cell-based; conditions: Homo sapiens
# Text: as §2, §3
# [5] = AIDS patients treated; cited from earlier work
# [6] = test system: K-562 acute myeloic leukemia; experiment: Inhibition of proliferation of K-562 cells; type: cell-based; conditions: Homo sapiens
# Text: as §2, §3
# [7] = test system: HTLV-IIIB -infected H9 cells; conditions: 50 μm N3 -TdR, 24-hour incubation; cited from earlier work
# [8] = test system: Rauscher murine leukemia virus (RLV); experiment: Antiretroviral activity in mice infected with Rauscher murine leukemia virus; type: in vivo; conditions: for Reverse transcriptas serum / mean spleen weight: RLV +; for Reverse transcriptas serum: 100% = 66000 dpm, treatment discontinued 12 hours before
# Protocol: (§4) Therefore we examined the toxicity and antiretroviral activity of FTdR in mice infected with Rauscher murine leukemia virus. Different doses of FTdR were applied to BalB/c Han strain of mice in plain water for 20 days beginning 2-8 hours after RLV infection.
# [9] = test system: MT4; experiment: Intracellular phosphorylation of 3H-FTdR in MT4 cells; type: in vitro ADME; conditions: 1/um 3H-FTdR, within 24 hours, Human MT4
# Protocol: (§5) The critical factor for 3'-fluoro-substituted deoxynucleosides to reach a high intracellular efficiency is their ability to be phosphorylated in situ in the infected cells. […] By comparison, the phosphorylation of 50 μm N3 -TdR by HTLV-IIIB -infected H9 cells to the triphosphate during a 24-hour incubation has been reported to reach only 0.9 pmoles/10^6 cells and to be accompanied by an extreme accumulation of the monophosphate of N3 -TdR (460 pmoles/10^6 cells), reflecting a strong inhibition of the dTMP-kinase (Furman et al., Proc. Natl. Acad. Sci. U.S.A. 83 8333 (1986)) and entailing considerable alterations of the deoxynucleoside triphosphate substrate pools (Furman et al., loc. cit.) which affect cellular DNA synthesis.
# (§6) Synthesis of nucleotides from 1/um^3 H-FTdR (tritium labeled)
# (§7) in cells of various species within 24 hours.
# [10] = test system: 3T3; experiment: Intracellular phosphorylation of 3H-FTdR in 3T3 cells; type: in vitro ADME; conditions: 1/um 3H-FTdR, within 24 hours, Mouse 3T3
# Protocol: as §5, §6, §7
# [11] = Toxicity of continuous oral FTdR in mice
# Protocol: as §4
# [12] = test system: H9 (HTLV-IIIB); experiment: Intracellular phosphorylation of 3H-FTdR in H9 (HTLV-IIIB) cells; type: in vitro ADME; conditions: 1/um 3H-FTdR, within 24 hours, Human H9 (HTLV-IIIB)
# Protocol: as §5, §6, §7
# [13] = test system: Ehrlich-mouse-ascites-carcinoma cells (EMAC); conditions: cited from earlier work
# [14] = test system: 9 different animal tumors; conditions: NCI program; cited from earlier work
# [15] = in vitro; conditions: human, mt-4 cells
# Protocol: as §1
# [16] = test system: CEM (LAV-II); experiment: Intracellular phosphorylation of 3H-FTdR in CEM (LAV-II) cells; type: in vitro ADME; conditions: 1/um 3H-FTdR, within 24 hours, Human CEM (LAV-II)
# Protocol: as §5, §6, §7
# [17] = target: T1, thymidine-phosphorylase from human spleen (Homo sapiens, UniProt P19971); experiment: Phosphorolytic cleavage by thymidine-phosphorylase; type: in vitro ADME
# T1 construct: thymidine-phosphorylase from human spleen; from tissue; host or cells: human spleen
# T1 sequence (P19971 11-482): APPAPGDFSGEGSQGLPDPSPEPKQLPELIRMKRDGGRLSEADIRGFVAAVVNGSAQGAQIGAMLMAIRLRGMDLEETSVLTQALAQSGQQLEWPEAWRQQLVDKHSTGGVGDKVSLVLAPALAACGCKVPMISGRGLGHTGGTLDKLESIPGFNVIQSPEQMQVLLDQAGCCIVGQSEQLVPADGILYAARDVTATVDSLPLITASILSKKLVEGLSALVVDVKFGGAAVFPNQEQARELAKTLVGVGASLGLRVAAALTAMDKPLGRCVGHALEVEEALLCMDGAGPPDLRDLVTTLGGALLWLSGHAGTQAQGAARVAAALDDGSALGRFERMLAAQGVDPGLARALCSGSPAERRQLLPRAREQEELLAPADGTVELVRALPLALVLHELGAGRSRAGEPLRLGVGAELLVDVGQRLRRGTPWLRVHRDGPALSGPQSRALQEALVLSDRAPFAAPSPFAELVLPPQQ
# Text: Therefore FTdR, FddBrUrd and FddFUrd were investigated for their ability to be cleaved by thymidine-phosphorylase from human spleen.
# [18] = test system: NRK-49F; experiment: Intracellular phosphorylation of 3H-FTdR in NRK-49F cells; type: in vitro ADME; conditions: 1/um 3H-FTdR, within 24 hours, Rat NRK-49F
# Protocol: as §5, §6, §7
# [19] = oral 1.8 mg/kg/day, given for 24 days
# [20] = 6.5 mg/kg/day in drinking water for 20 days, RLV +
# [21] = 6.5 mg/kg/day in drinking water for 20 days, RLV -
# [22] = 69.0 mg/kg/day in drinking water for 20 days, RLV +
# [23] = 69.0 mg/kg/day in drinking water for 20 days, RLV -
compound,measurement,setting,value
"Cc1cn([C@H]2C[C@H](N=[N+]=[N-])[C@@H](CO)O2)c(=O)[nH]c1=O [N3 -TdR, 3'-azido-2',3'-dideoxythymidine, reference compound]",EC50,[1]; read-out: ED50,0.016 µM
same,IC50,[2]; read-out: CD50,500 µM
same,IC50,[3]; read-out: CD50,800 µM
same,IC50,[4]; read-out: CD50,220 µM
same,patients requiring blood transfusions (toxic side effects on the bone marrow),[5],about 50%
same,IC50,"[6]; K562, read-out: CD50",50 µM
same,accumulation of the monophosphate,[7],460 pmoles/10^6 cells
same,phosphorylation to the triphosphate,[7],0.9 pmoles/10^6 cells
"Cc1cn([C@H]2C[C@H](F)[C@@H](CO)O2)c(=O)[nH]c1=O [FTdR, 2',3'-dideoxy-3'-fluorothymidine]",EC50,[1]; read-out: ED50 (the source's name),0.003 µM
same,antiviral activity of FTdR against N3 -TdR,"[1]; cellular test, ratio of ED50",5 times
same,IC50,"[2]; dose required to reduce the cell number by 50%, K-37, read-out: CD50 (the source's name)",260 µM
same,suppression of splenomegaly and viremia,[8]; 6.5 mg/kg/day,completely active in suppressing splenomegaly and viremia
same,Reverse transcriptas serum,[8]; 6.5 mg/kg/day for 20 days,0%
same,mean spleen weight,[8]; 6.5 mg/kg/day in drinking water for 20 days,192 mg
same,splenomegaly and RLV-associated reverse transcriptase activity in the serum,[8]; 69.0 mg/kg/day,completely suppresses
same,Reverse transcriptas serum,[8]; 69.0 mg/kg/day for 20 days,0%
same,mean spleen weight,[8]; 69.0 mg/kg/day in drinking water for 20 days,86 mg
same,development of RLV induced leukemia,"[8]; 69.0 mg/kg/day, continuous application for 20 days",able to prevent the development of a leukemia
same,suppression of serum reverse transcriptase activity,[8]; [19],more than 70%
same,suppression of splenomegaly,[8]; [19],more than 50%
same,IC50,"[3]; dose required to reduce the cell number by 50%, H9, read-out: CD50 (the source's name)",1000 µM
same,diphosphate (FdTDP),[9],1.6 pmoles/106 cells
same,monophosphate (FdTMP),[9],9.9 pmoles/106 cells
same,triphosphate (FdTTP),[9],5.6 pmoles/106 cells
same,diphosphate (FdTDP),[10],2.2 pmoles/106 cells
same,monophosphate (FdTMP),[10],0.38 pmoles/106 cells
same,triphosphate (FdTTP),[10],16.3 pmoles/106 cells
same,signs of anemia and depression of white cell counts,[11]; 6.5 mg/kg/day,failed to produce signs of anemia and depression of white cell counts
same,Hemoglobin,[11]; [20],8.1 mmol/L
same,changes of body weight,[11]; [20],0%
same,Hemoglobin,[11]; [21],8.9 mmol/L
same,changes of body weight,[11]; [21],+1%
same,mean spleen weight,[11]; [21],125 mg
same,toxic side effects (hematological parameters),[11]; 69.0 mg/kg/day,toxic side effects are associated with this concentration range
same,Hemoglobin,[11]; [22],5.1 mmol/L
same,changes of body weight,[11]; [22],-10%
same,Hemoglobin,[11]; [23],4.3 mmol/L
same,changes of body weight,[11]; [23],-12%
same,mean spleen weight,[11]; [23],72 mg
same,diphosphate (FdTDP),[12],0.3 pmoles/106 cells
same,monophosphate (FdTMP),[12],3.3 pmoles/106 cells
same,triphosphate (FdTTP),[12],1.4 pmoles/106 cells
same,IC50,"[4]; dose required to reduce the cell number by 50%, read-out: CD50 (the source's name)",160 µM
same,capability of phosphorylation of FTdR in EMAC versus human cells,[13],10 times
same,cytostatic effect,[14],only a weak cytostatic effect
same,CC50 at 144 h,[15],1.1 µM
same,diphosphate (FdTDP),[16],0.5 pmoles/106 cells
same,monophosphate (FdTMP),[16],6.1 pmoles/106 cells
same,triphosphate (FdTTP),[16],2.8 pmoles/106 cells
same,"metabolised at 3 h, 1000 µM",[17],3 to 8%
same,IC50,"[6]; K562, dose required to reduce the cell number by 50%, K-562, read-out: CD50 (the source's name)",45 µM
same,diphosphate (FdTDP),[18],3.7 pmoles/106 cells
same,monophosphate (FdTMP),[18],3.5 pmoles/106 cells
same,triphosphate (FdTTP),[18],13.2 pmoles/106 cells
